From ChEMBL document CHEMBL1152763, “Synthesis, cytotoxic activity, and DNA binding properties of antitumor cis-1,2-dihydroxy-1,2-dihydrobenzo[b]acronycine cinnamoyl esters” (Bioorg Med Chem, 2009)
Activity calls are given as the source filed them. No cut-off for these calls is given here.

Assays:
L1210 = assay: Cytotoxicity against mouse L1210 cells after 48 hrs by microculture tetrazolium assay; assay type: functional, cell-based
[1] = Binding affinity to pBS plasmid 117 base-pair DNA fragment assessed as half life of DNA alkylation by gel shift assay
[2] = (§1) Cytotoxicity against human KB-3-1 cells after 96 hrs by microculture tetrazolium assay; assay type: functional, cell-based; settings: KB 3-1, 96 h
MC-38 [3] = assay: Antitumor activity against mouse Colon 38 cells xenografted B6D2F1 mouse assessed as inhibition of tumor growth at 4 mg/kg, iv administered twice daily; assay type: functional
KB 3-1 = assay: as §1; assay type: functional, cell-based
MC-38 [4] = assay: Toxicity in mouse Colon 38 cells xenografted B6D2F1 mouse assessed as inhibition of tumor growth at 4 mg/kg, iv administered twice daily; assay type: functional, organism-based; parameters: dose 4 mg/kg
MC-38 [5] = assay: Antitumor activity against mouse Colon 38 cells xenografted B6D2F1 mouse assessed as inhibition of tumor growth at 2 mg/kg, iv administered twice daily; assay type: functional
MC-38 [6] = assay: Antitumor activity against mouse Colon 38 cells xenografted B6D2F1 mouse assessed as tumor free state at 4 mg/kg, iv administered twice daily on day 90 post drug dose; assay type: functional, organism-based; parameters: dose 4 mg/kg
[7] = Mus musculus, L1210, 48 h, read-out: IC50

SMILES	IC50 (L1210; [7])	T1/2 [1]	IC50 [2]	other results
COc1cc2c(c3c1c(=O)c1cc4ccccc4cc1n3C)[C@@H](O)[C@@H](OC(C)=O)C(C)(C)O2 (racemic)	620 nM	0.0833 h	160 nM	
COc1ccc(/C=C/C(=O)O[C@@H]2[C@H](O)c3c(cc(OC)c4c(=O)c5cc6ccccc6cc5n(C)c34)OC2(C)C)cc1 (racemic)	130 nM		30 nM	
COc1cc2c(c3c1c(=O)c1cc4ccccc4cc1n3C)[C@@H](O)[C@@H](OC(=O)/C=C/c1ccc(C(F)(F)F)cc1)C(C)(C)O2 (racemic)	90 nM		20 nM	
COc1cc2c(c3c1c(=O)c1cc4ccccc4cc1n3C)[C@@H](O)[C@@H](OC(=O)/C=C/c1cccc(Br)c1)C(C)(C)O2 (racemic)	80 nM		20 nM	
COc1cc2c(c3c1c(=O)c1cc4ccccc4cc1n3C)[C@@H](O)[C@@H](OC(=O)/C=C/c1ccccc1Cl)C(C)(C)O2 (racemic)	50 nM		20 nM	
COc1cc2c(c3c1c(=O)c1cc4ccccc4cc1n3C)[C@@H](OC(C)=O)[C@@H](OC(=O)/C=C/c1ccc(Cl)c(Cl)c1)C(C)(C)O2 (racemic)	400 nM	> 24 h	50 nM	inhibition in vivo at 4 mg/kg (MC-38 [3]): 84%
COc1ccc(/C=C/C(=O)O[C@@H]2[C@H](O)c3c(cc(OC)c4c(=O)c5cc6ccccc6cc5n(C)c34)OC2(C)C)cc1OC (racemic)	1100 nM		80 nM	
COc1cc2c(c3c1c(=O)c1cc4ccccc4cc1n3C)[C@@H](OC(C)=O)[C@@H](OC(=O)/C=C/c1cccc(Cl)c1)C(C)(C)O2 (racemic)				IC50 (L1210; l1210): Insoluble; solubility (KB 3-1): Not soluble
COc1ccc(/C=C/C(=O)O[C@@H]2[C@H](OC(C)=O)c3c(cc(OC)c4c(=O)c5cc6ccccc6cc5n(C)c34)OC2(C)C)cc1OC (racemic)	900 nM		150 nM	
COc1cc2c(c3c1c(=O)c1cc4ccccc4cc1n3C)[C@@H](O)[C@@H](OC(=O)/C=C/c1ccc(Cl)c(Cl)c1)C(C)(C)O2 (racemic)	35 nM	1 h	6 nM	Activity (MC-38 [4]): Toxic; inhibition in vivo at 2 mg/kg (MC-38 [5]): 90%
COc1cc2c(c3c1c(=O)c1cc4ccccc4cc1n3C)[C@@H](OC(C)=O)[C@@H](OC(=O)/C=C/c1ccc(Cl)cc1)C(C)(C)O2 (racemic)	500 nM	6 h	70 nM	
COc1cc2c(c3c1c(=O)c1cc4ccccc4cc1n3C)[C@@H](O)[C@@H](OC(=O)/C=C/c1ccc([N+](=O)[O-])cc1)C(C)(C)O2 (racemic)	240 nM		30 nM	
COc1cc2c(c3c1c(=O)c1cc4ccccc4cc1n3C)[C@@H](OC(C)=O)[C@@H](OC(=O)/C=C/c1cccc(C(F)(F)F)c1)C(C)(C)O2 (racemic)	700 nM		60 nM	
COc1cc2c(c3c1c(=O)c1cc4ccccc4cc1n3C)[C@@H](OC(C)=O)[C@@H](OC(=O)/C=C/c1ccccc1Cl)C(C)(C)O2 (racemic)	600 nM		90 nM	
COc1cc2c(c3c1c(=O)c1cc4ccccc4cc1n3C)[C@@H](OC(C)=O)[C@@H](OC(=O)/C=C/c1ccccc1)C(C)(C)O2 (racemic)	1100 nM	1.5 h	150 nM	
COc1cc2c(c3c1c(=O)c1cc4ccccc4cc1n3C)[C@@H](OC(C)=O)[C@@H](OC(=O)/C=C/c1ccc(C(F)(F)F)cc1)C(C)(C)O2 (racemic)	1500 nM		300 nM	
COc1cc2c(c3c1c(=O)c1cc4ccccc4cc1n3C)[C@@H](O)[C@@H](OC(=O)/C=C/c1ccccc1)C(C)(C)O2 (racemic)	120 nM	0.333 h	30 nM	
COc1cc2c(c3c1c(=O)c1cc4ccccc4cc1n3C)[C@@H](OC(C)=O)[C@@H](OC(=O)/C=C/c1cccc(Br)c1)C(C)(C)O2 (racemic)	600 nM		120 nM	
COc1cc2c(c3c1c(=O)c1cc4ccccc4cc1n3C)[C@@H](O)[C@@H](OC(=O)/C=C/c1cccc(Cl)c1)C(C)(C)O2 (racemic)	60 nM		20 nM	
COc1cc2c(c3c1c(=O)c1cc4ccccc4cc1n3C)[C@@H](O)[C@@H](OC(=O)/C=C/c1cccc(C(F)(F)F)c1)C(C)(C)O2 (racemic)	100 nM		15 nM	
COc1cc2c(c3c1c(=O)c1cc4ccccc4cc1n3C)[C@@H](OC(C)=O)[C@@H](OC(=O)/C=C/c1ccc(Cl)cc1Cl)C(C)(C)O2 (racemic)	600 nM		90 nM	
COc1cc2c(c3c1c(=O)c1cc4ccccc4cc1n3C)[C@@H](O)[C@@H](OC(=O)/C=C/c1ccc(Cl)cc1)C(C)(C)O2 (racemic)	40 nM	1 h	8 nM	
COc1cc2c(c3c1c(=O)c1cc4ccccc4cc1n3C)[C@@H](OC(C)=O)[C@@H](OC(=O)/C=C/c1ccc([N+](=O)[O-])cc1)C(C)(C)O2 (racemic)	500 nM		140 nM	
COc1ccc(/C=C/C(=O)O[C@@H]2[C@H](OC(C)=O)c3c(cc(OC)c4c(=O)c5cc6ccccc6cc5n(C)c34)OC2(C)C)cc1 (racemic)	1200 nM		240 nM	
COc1cc2c(c3c1c(=O)c1cc4ccccc4cc1n3C)[C@@H](O)[C@@H](OC(=O)/C=C/c1ccc(Cl)cc1Cl)C(C)(C)O2 (racemic)	35 nM		6 nM	
COc1cc2c(c3c1c(=O)c1cc4ccccc4cc1n3C)[C@@H](O)[C@@H](OC(=O)/C=C/c1ccc(Br)cc1)C(C)(C)O2 (racemic)	50 nM	1 h	6 nM	
COc1cc2c(c3c1c(=O)c1cc4ccccc4cc1n3C)[C@@H](OC(C)=O)[C@@H](OC(=O)/C=C/c1ccc(Br)cc1)C(C)(C)O2 (racemic)	700 nM	6 h	80 nM	
COc1cc2c(c3c1c(=O)c1cc4ccccc4cc1n3C)[C@@H](OC(C)=O)[C@@H](OC(C)=O)C(C)(C)O2 (racemic)	790 nM	0.5 h	100 nM	Activity (MC-38 [6]): Active; inhibition in vivo at 4 mg/kg (MC-38 [3]): 99%
